Target: T1, Ornithine decarboxylase (ODC) (Rattus norvegicus, UniProt P09057)
T1 construct: is prepared from the livers of rats which have been injected with thioacetamide; from tissue; host or cells: rat liver (thioacetamide-induced)
T1 sequence (P09057 1-461): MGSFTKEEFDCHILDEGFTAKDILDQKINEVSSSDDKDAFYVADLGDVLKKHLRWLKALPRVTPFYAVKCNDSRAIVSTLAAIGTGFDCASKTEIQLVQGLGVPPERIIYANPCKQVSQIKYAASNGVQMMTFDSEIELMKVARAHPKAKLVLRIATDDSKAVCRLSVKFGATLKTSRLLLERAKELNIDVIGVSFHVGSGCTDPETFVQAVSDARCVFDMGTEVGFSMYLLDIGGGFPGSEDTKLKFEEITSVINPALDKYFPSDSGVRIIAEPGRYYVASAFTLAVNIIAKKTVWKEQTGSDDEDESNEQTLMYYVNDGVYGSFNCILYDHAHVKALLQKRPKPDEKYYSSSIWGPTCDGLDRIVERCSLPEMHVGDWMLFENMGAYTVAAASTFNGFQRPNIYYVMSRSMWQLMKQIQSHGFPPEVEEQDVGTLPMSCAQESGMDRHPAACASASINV
Assay: In vitro time-dependent inhibition of ornithine decarboxylase (14CO2 release from DL-[1-14C]ornithine; Kitz and Wilson analysis)
Type: biochemical, rats
Conditions: calculated by method of Kitz and Wilson; for ODC τ50: half-life at infinite concentration of inhibitor, rat liver ODC, 37°; for Ki: apparent dissociation constant, ODC from livers of thioacetamide-treated rats, incubated at 37°
Description: The stock solution of ODC is composed of proteins (16 mg/mL), sodium phosphate buffer (30 mM, pH 7.1), dithiothreitol (5 mM) and pyridoxal phosphate (0.1 mM). The specific activity of this stock solution is 0.12 nmol of CO2/min per mg of protein. For a typical experiment 320 µl of this stock solution is mixed at time 0 with 80 µl of a solution of the inhibitor in water and incubated at 37°. At different times 50 pl aliquots are transferred into a 1 mL assay medium containing sodium phosphate (30 mM, pH 7.1), dithiothreitol (5 mM), pyridoxal phosphate (0.1 mM), L-ornithine (0.081 pmol), and DL-[1-^14C] ornithine (0.043 pmol, 58 Ci/mol, Amersham) in a closed vessel in which a filter paper moistered with 50 µl hyamine hydroxide (1 M) is fitted. The reaction is allowed to proceed for 60 min at 37°C and then terminated by addition of 0.5 ml of 40% trichloroacetic acid. After an additional 30 min, the CO2 absorbed on the filter paper is counted in a standard scintillation cocktail.

SMILES	ODC τ50	Ki
C=C(CN)CC(N)CF (stereo not shown) [B, 1-fluoro-2,5-diamino-4-methylene-pentane]	2.6 min	–
NCC(=O)CC(N)(CF)C(=O)O (stereo not shown) [A, 2-fluoromethyl-2,5-diamino-4-oxo-pentanoic acid]	3.1 min	4.8 µM
NCC(=O)CC(N)CF (stereo not shown) [C, 1-fluoro-2,5-diamino-4-oxo-pentane]	1.6 min	–
C=C(CN)CC(N)(CF)C(=O)O (stereo not shown) [D, 2-fluoromethyl-2,5-diamino-4-methylene-pentanoic acid]	3.6 min	53 µM
C=C(CN)CC(N)C(F)F (stereo not shown) [E, 1,1-difluoro-2,5-diamino-4-methylene-pentane]	2.2 min	–
